Assay results published in US4732898A, “2-(2-aryl-2-oxoalkylidene) analogs of-3,5-pyridinedicarboxylic acid dialkyl esters useful for treatment of cardiovascular disorders” (Warner-Lambert Company, priority 1987, dated 1988).
Like-named read-outs stand apart in the source and are kept apart here.

Legend:
[1] = test system: isolated Langendorff rat heart; assay: inotropic and vascular activities in the isolated Langendorff rat heart preparation (CVIH); conditions: isolated perfused rat heart
Method: TEST FOR INOTROPIC, CHRONOTROPIC, AND VASCULAR ACTIVITIES IN THE ISOLATED LANGENDORFF RAT HEART PREPARATION (CARDIOVASCULAR ISOLATED HEART - CVIH)
Male rats (400-600 gms) are pretreated with 2000 units Na heparin (Parke-Davis) and anesthetized with Na pentobarbital (50 mg/kg, Butler Co.) administered intraperitoneally. Once anesthetized, the rat heart is rapidly excised, the ascending aorta fitted to the aorta perfusion cannula, and secured with a ligature. The coronary arteries are perfused initially at a rate of about 15 ml/min for two to three minutes, after which they are perfused at constant pressure of 70 mm Hg and temperature of 37° C. The electrocardiogram (ECG) is recorded using two platinum electrodes positioned at the base and apex of the left ventricle (LV). The LV is instrumented via the mitral valve with a 4F Millar catheter tip pressure transducer. The catheter is advanced to the apex then withdrawn slightly. Once properly positioned, the catheter is anchored to the perfusion cannulae with an alligator clip. A second heart is excised, cannulated, and perfused by the same method outlined above. Both hearts are tested in parallel. The standard physiological salt solution (PSS) is a modified Krebs Henseleit bicarbonate buffer of the following composition in mM concentration: NaCl, 127; NaHCO^3, 25; dextrose, 5.5; Na Pyruvate, 2.0; KCl, 4.7; MgSO^4, 1.1; KH 2PO^4, 1.2; CaCl^2 ·2H^2, 2.5; CaNa^2 EDTA, 0.05.
A 30-minute stabilization period is observed before starting the test protocol.
A microprocessor control system is used as a servo mechanism which permits coronary perfusion pressure (CPP) and drug concentration to be maintained constant independent of changes in coronary flow. The level at which CPP and drug concentration are maintained can be changed by commands communicated through the microprocessor keyboard. Dose-response curves are carried out by perfusing concentrated drug solution (DC) at rates proportional to total coronary flow (CFT). Drug concentrations are increased by proportionate increases in the rate of DC infusion over CFT via the microprocessor keyboard. The proportional flow rates for DC:CFT are about 0.00005:1 at the low end and 0.0015:1 at the high end of the dose response curve.
Dose-response curves encompassing at least two log units are carried out in one-half log increments starting at a subthreshold dose and ending at a dose which produces near maximal response.
Measurements for CVIH are maximum positive first derivative of LVP (LV+dP/dtmax), heart rate (HR), and coronary flow (CF). Units are: LV+dP/dtmax, millimeters of mercury/second (mm Hg/sec); HR, beats/minute (bpm) and CF, milliliters/minute (ml/min). LV+dP/dtmax is derived from the LVP signal by a differential amplifier and recorded. HR is calculated from the ECG strip chart recording and CF is calculated by recording analog outputs from pumps 1 and 2. Outputs from pump #1 =CFT and the output from pump #2 =CF for heart B (CFB). CF for heart A (CFA) is calculated ([…]). All pumps are calibrated weekly or when pump tubing is replaced.
Compounds are solubilized in DMSO and diluted with water when possible. EC^25 data are obtained from data that is digitized and averaged in a conventional manner.

[2] = molecular target: dihydropyridine receptor; assay: inhibition of [3H]-nitrendipine binding in rat brain homogenate; conditions: read-out: IC50 (index of dihydropyridine receptor affinity; inhibition of [3H]-nitrendipine binding)
Text: *Index of dihydropyridine receptor affinity: IC50 for inhibition of
[^3 H]--nitrendipine binding in rat brain homogenate.

[3] = test system: anesthetized dog; assay: in vivo myocardial inotropic activity in the anesthetized dog; conditions: 1 mg/kg, femoral vein, pentobarbital anesthetized dog
Method: TEST FOR IN VIVO MYOCARDIAL INOTROPIC ACTIVITY IN THE ANESTHETIZED DOG
Adult mongrel dogs of either sex are anesthetized with pentobarbital, 35 mg/kg, IV, and are maintained under anesthesia with a continuous infusion of pentobarbital, 3.5 mg/kg/hr. The trachea is intubated, but the animals are permitted to breathe spontaneously. A cannula is inserted into the femoral vein for administering test agents. A Millar catheter tip pressure transducer or a fluid filled catheter is inserted into the ascending aorta via the femoral artery for measuring pressure. A Millar catheter tip pressure transducer is passed into the left ventricle via the left carotid artery for measuring left ventricular blood pressure. Needle electrodes are placed subcutaneously for recording a lead II electrocardiogram. Before administering test agents, control data is acquired over a period of at least thirty minutes.
The test agent is dissolved in dimethylacetamide. Each dose is administered in a volume of 0.5 ml over a period of one minute. Appropriate vehicle controls are also administered.

[4] = test system: isolated Langendorff rat heart; assay: inotropic and vascular activities in the isolated Langendorff rat heart preparation (CVIH); conditions: LV+dP/dtmax; isolated perfused rat heart; EC20 instead of EC25; read-out: EC20 Contractility
[5] = LV+dP/dtmax, read-out: EC25 Contractility
[6] = coronary flow, read-out: EC25 Flow

IC50 [2] [nM]	Compound	EC25 [1, 5] [µM]	EC25 [1, 6] [µM]	decrease in blood pressure [3] [%]	increase in contractility [3] [%]	increase in heart rate [3] [%]	EC20 [4] [µM]
25	CCOC(=O)C1=C(C)N/C(=C\C(=O)c2ccccc2)C(C(=O)OCC)C1c1ccccn1 (racemic) [Example 16, (2Z,3α,4β)-(±)-Diethyl-1,2,3,4-tetrahydro-6-methyl-2-[2-oxo-2-phenylethylidene]-4-[2-pyridyl]-3,5-pyridinedicarboxylate]	1.0	1.0				
> 1000	CCOC(=O)[C@@H]1/C(=C/C(=O)c2ccccc2)NC2=C(C(=O)CCC2)[C@H]1c1ccccc1C(F)(F)F (relative stereo) [Example 10]	2	1.4				
> 1000	CCOC(=O)[C@@H]1/C(=C2\CCc3ccccc3C2=O)NC(C)=C(C#N)[C@H]1c1ccccc1C(F)(F)F (relative stereo) [Example 11]		1				1
> 1000	CCOC(=O)C1=C(C)NC(=C2CCc3ccccc3C2=O)[C@@H](C(=O)OCC)[C@@H]1c1ccccc1C(F)(F)F (relative stereo) [Example 12]						
85	CCOC(=O)C1=C(C)N/C(=C\C(=O)c2ccccc2)[C@@H](C(=O)OCC)[C@@H]1c1cccc([N+](=O)[O-])c1 (relative stereo) [Example 14, (2Z,3α,4β)-(±)-Diethyl-1,2,3,4-tetrahydro-6-methyl-2-[2-oxo-2-phenylethylidene]-4-[3-nitrophenyl]-3,5-pyridinedioarboxylate]	1	1				
180	CCOC(=O)C1=C(C)N/C(=C\C(=O)c2ccccc2)[C@@H](C(=O)OCC)[C@@H]1c1cccc(Cl)c1Cl (relative stereo) [Example 15, (2Z,3α,4β)-(±)-Diethyl-1,2,3,4-tetrahydro-6-methyl-2-[2-oxo-2-phenylethylidene]-4-2,3-dichlorophenyl]-3,5-pyridinedicarboxylate]	1	1				

More lines, now with the values behind:

Compound	IC50 [2] [nM]	EC25 [1, 5] [µM]	EC25 [1, 6] [µM]	decrease in blood pressure [3] [%]	increase in contractility [3] [%]	increase in heart rate [3] [%]	EC20 [4] [µM]
CCOC(=O)C1=C(C)N/C(=C\C(=O)c2ccccc2)[C@@H](C(=O)OCC)[C@@H]1c1ccccc1C(F)(F)F (relative stereo) [Example 1, (2Z,3α,4β)-(±)-Diethyl-1,2,3,4-tetrahydro-6-methyl-2-(2-oxo-2-phenylethylidene)-4-[2-(trifluoromethyl)-phenyl]-3,5-pyridinedicarboxylate]	280	0.1	0.3				
CCOC(=O)C1=C(C)N/C(=C\C(=O)c2ccncc2)[C@@H](C(=O)OCC)[C@@H]1c1ccccc1C(F)(F)F (relative stereo) [Example 2]	20	> 3	< 0.1	21	99	67	
CCOC(=O)C1=C(C)N/C(=C\C(=O)c2ccc(Cl)cc2)[C@@H](C(=O)OCC)[C@@H]1c1ccccc1C(F)(F)F (relative stereo) [Example 3, (2Z,3α,4β)-Diethyl-2-[2-(4-chlorophenyl)-2-oxoethylidene]-1,2,3,4-tetrahydro-6-methyl-4-[2-(trifluoromethyl)phenyl]-3,5-pyridinedicarboxylate]	190	< 0.1	< 0.1				
CCOC(=O)C1=C(C)N/C(=C\C(=O)c2ccc(F)cc2)[C@@H](C(=O)OCC)[C@@H]1c1ccccc1C(F)(F)F (relative stereo) [Example 4, (2Z,3α,4β)-Diethyl-2-[2-(4-fluorophenyl)-2-oxoethylidene]-1,2,3,4-tetrahydro-6-methyl-4-[2-(trifluoromethyl)phenyl]-3,5-pyridinedicarboxylate]	52	> 3	0.3				
CCOC(=O)C1=C(C)N/C(=C\C(=O)c2ccc(C)cc2)[C@@H](C(=O)OCC)[C@@H]1c1ccccc1C(F)(F)F (relative stereo) [Example 5, (2Z,3α,4β)-Diethyl-2-[2-(4-methylphenyl)-2-oxoethylidene]-1,2,3,4-tetrahydro-6-methyl-4-[2(trifluoromethyl)phenyl]-3,5-pyridinedicarboxylate]	360	> 3	0.13				
CCOC(=O)C1=C(C)N/C(=C\C(=O)c2ccc(N(C)C)cc2)[C@@H](C(=O)OCC)[C@@H]1c1ccccc1C(F)(F)F (relative stereo) [Example 6, (2Z,3α,4β)-(±) -Diethyl-1,2,3,4-tetrahydro-6-methyl-2-[2-oxo-2-4-(dimethylamino)phenyl)ethylidene]-4-[2-(trifluoromethyl)phenyl]-3,5-pyridine-dicarboxylate]		> 3	0.2				
CCOC(=O)[C@H]1/C(=C/C(=O)c2ccccc2)NC(C)=C([N+](=O)[O-])[C@@H]1c1ccccc1C(F)(F)F (relative stereo) [Example 7, (2Z,3α,4β)-(±)-1,2,3,4-Tetrahydro-6-methyl-5-nitro-2-[2-oxo-2-phenylethylidene]-4-[2-(trifluoromethyl)phenyl]-3-pyridinedicarboxylic acid ethyl ester]	130	> 3	0.1				
CC1=C([N+](=O)[O-])[C@H](c2ccccc2C(F)(F)F)[C@@H](C(=O)c2ccccc2)/C(=C/C(=O)c2ccccc2)N1 (relative stereo) [Example 8, [trans-(Z)]-2-[3-Benzoyl-3,4-dihydro-6-methyl-5-nitro-4-[2-(trifluoromethyl)phenyl]-2-(1H)pyridinylidene]1-phenylethanone]	> 1000	> 3	0.3				
CCOC(=O)C1=C(C)N/C(=C\C(=O)c2ccccc2)[C@@H](C(=O)c2ccccc2)[C@@H]1c1ccccc1C(F)(F)F (relative stereo) [Example 9, (4α,5β,6Z)-(±)-Ethyl-5-benzoyl-1,4,5,6-tetrahydro-2-methyl-6-(2-oxo-2-phenylethylidene)-4-[2-trifluoromethyl)phenyl]3-pyridinecarboxylate]	110	1.2	0.4				
(2Z,3α,4β)-(±)-Diethyl-1,2,3,4-tetrahydro-6-methyl-2-[2-oxo-2-phenylethylidene]-4-[2-nitrophenyl-3,5-pyridinedicarboxylate [Example 13]	39	1.0	1.0				
